Measurements taken from PubChem BioAssay (NCI).
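The compound was tested at five concentrations on cells cultured in 96-well plates, with a 48-hour exposure period. GI50 is the concentration that inhibits growth by half. TGI: concentration producing complete growth inhibition.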

Legend:
Test in all cases: NCI anticancer screen, dose series, 48 h
SK-MEL-5 melanoma = tested on: SK-MEL-5 melanoma
COLO 205 colon = tested on: COLO 205 colon
EKVX NSCLC = tested on: EKVX NSCLC
UACC-257 melanoma = tested on: UACC-257 melanoma
RXF 393 renal = tested on: RXF 393 renal
HL-60(TB) leukemia = tested on: HL-60(TB) leukemia
MCF7 breast = tested on: MCF7 breast
A549 NSCLC = tested on: A549 NSCLC
MALME-3M melanoma = tested on: MALME-3M melanoma
CCRF-CEM leukemia = tested on: CCRF-CEM leukemia
MDA-MB-435 = tested on: MDA-MB-435
MOLT-4 leukemia = tested on: MOLT-4 leukemia
M14 melanoma = tested on: M14 melanoma
PC-3 prostate = tested on: PC-3 prostate
HCC-2998 colon = tested on: HCC-2998 colon
LOX IMVI melanoma = tested on: LOX IMVI melanoma
SK-MEL-28 melanoma = tested on: SK-MEL-28 melanoma
IGROV1 ovarian = tested on: IGROV1 ovarian
OVCAR-5 ovarian = tested on: OVCAR-5 ovarian
ACHN renal = tested on: ACHN renal
SF-268 CNS = tested on: SF-268 CNS
HOP-92 NSCLC = tested on: HOP-92 NSCLC
SK-MEL-2 melanoma = tested on: SK-MEL-2 melanoma
K-562 leukemia = tested on: K-562 leukemia
RPMI-8226 leukemia = tested on: RPMI-8226 leukemia
TK-10 renal = tested on: TK-10 renal
BT-549 breast = tested on: BT-549 breast
OVCAR-4 ovarian = tested on: OVCAR-4 ovarian
SN12C renal = tested on: SN12C renal
KM12 colon = tested on: KM12 colon

SMILES: CCCCNC(=S)Nc1ccc(OCc2nc3ccc(Cl)cc3[nH]2)cc1
- TGI (SK-MEL-5 melanoma): 24.5 µM
- GI50 (COLO 205 colon): 17 µM
- TGI (COLO 205 colon): 38.1 µM
- GI50 (EKVX NSCLC): 7.13 µM
- TGI (EKVX NSCLC): 20.2 µM
- GI50 (UACC-257 melanoma): 11.5 µM
- TGI (UACC-257 melanoma): 24.1 µM
- GI50 (RXF 393 renal): 3.82 µM
- TGI (RXF 393 renal): 16.2 µM
- GI50 (HL-60(TB) leukemia): 1.8 µM
- TGI (HL-60(TB) leukemia): 9.66 µM
- GI50 (MCF7 breast): 3.55 µM
- TGI (MCF7 breast): 18.8 µM
- GI50 (A549 NSCLC): 12.2 µM
- TGI (A549 NSCLC): 26.7 µM
- GI50 (MALME-3M melanoma): 11.6 µM
- TGI (MALME-3M melanoma): 23.9 µM
- GI50 (CCRF-CEM leukemia): 3.16 µM
- TGI (CCRF-CEM leukemia): 12.4 µM
- GI50 (MDA-MB-435): 10.1 µM
- TGI (MDA-MB-435): 22.2 µM
- GI50 (MOLT-4 leukemia): 3.23 µM
- TGI (MOLT-4 leukemia): 13.3 µM
- GI50 (M14 melanoma): 11.3 µM
- TGI (M14 melanoma): 26.8 µM
- GI50 (PC-3 prostate): 3.08 µM
- TGI (PC-3 prostate): 14.5 µM
- GI50 (HCC-2998 colon): 4.14 µM
- TGI (HCC-2998 colon): 17.1 µM
- GI50 (LOX IMVI melanoma): 3.41 µM
- TGI (LOX IMVI melanoma): 16.2 µM
- GI50 (SK-MEL-28 melanoma): 14.3 µM
- TGI (SK-MEL-28 melanoma): 27.5 µM
- GI50 (IGROV1 ovarian): 5.3 µM
- TGI (IGROV1 ovarian): 18.5 µM
- GI50 (OVCAR-5 ovarian): 13 µM
- TGI (OVCAR-5 ovarian): 25.6 µM
- GI50 (ACHN renal): 7.74 µM
- TGI (ACHN renal): 20.4 µM
- GI50 (SF-268 CNS): 12.1 µM
- TGI (SF-268 CNS): 27.9 µM
- GI50 (HOP-92 NSCLC): 2.04 µM
- TGI (HOP-92 NSCLC): 6.43 µM
- GI50 (SK-MEL-2 melanoma): 13.1 µM
- TGI (SK-MEL-2 melanoma): 26.3 µM
- GI50 (K-562 leukemia): 3.41 µM
- TGI (K-562 leukemia): > 100 µM
- GI50 (RPMI-8226 leukemia): 3.83 µM
- TGI (RPMI-8226 leukemia): 30.3 µM
- GI50 (TK-10 renal): 13.1 µM
- TGI (TK-10 renal): 26.2 µM
- GI50 (BT-549 breast): 9.98 µM
- TGI (BT-549 breast): 22.4 µM
- GI50 (OVCAR-4 ovarian): 7.67 µM
- TGI (OVCAR-4 ovarian): 21.5 µM
- GI50 (SN12C renal): 10.5 µM
- TGI (SN12C renal): 22.9 µM
- GI50 (KM12 colon): 14 µM
- TGI (KM12 colon): 28.9 µM
